Results from US11958865B1, “Leucine-rich repeat kinase 2 (LRRK2) inhibitors” (H. Lundbeck A/S, priority 2022, dated 2024).
Like-named read-outs stand apart in the source and are kept apart here.

What was measured:
[1] = Rat brain disposition after oral gavage; assay type: in vivo, male Sprague-Dawley rats; conditions: male, Sprague-Dawley, 1 h, mean ± stdev; for Kp at 1 h / Kp uu at 1 h: n=3
In short: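 Male Sprague-Dawley rats (n=3) dosed orally at 10 or 5 mg/kg in 0.5% HPMC suspension; plasma and brain taken at 0.5 or 1 h. LC-MS/MS quantitation; Kp is total brain:plasma ratio, and Kp,uu was derived using rat fu in plasma and brain.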

[2] = Fraction unbound in rat plasma and brain homogenate by equilibrium dialysis; assay type: in vitro ADME, male Sprague-Dawley rat; conditions: 1 μM, equilibrium dialysis 5 h at 37° C.; for fubrain (% free): rat brain homogenate; for fuplasma (% free): rat plasma
In short: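 Male Sprague-Dawley rat plasma or brain homogenate (diluted 1:4 in buffer) dialysed against 100 mM sodium phosphate pH 7.4 across a 12-14 kDa membrane, 1 μM compound (≤0.5% DMSO), 5 h at 37° C with shaking. LC/MS-MS of both chambers; fu from buffer/donor ratio, corrected for dilution factor D=4 (brain) or 1 (plasma).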

[3] = test system: panel of 403 wild type kinases; assay: Broad kinase selectivity, KINOMEscan scanMAX panel; assay type: binding, primarily of human origin; conditions: 10 nM
Method: Protein kinase profiling of the inhibitors (Fabian, M. A. et al. A small molecule-kinase interaction map for clinical kinase inhibitors. Nat. Biotechnol. 23, 329-336 (2005)) were undertaken at a concentration of 0.010 μM and carried out in Eurofins DiscoverX KINOMEscan scanMAX panel of 403 wild type kinases (primarily of human origin) covering AGC (PKA, PKG, PKC family kinases), CAMK (Calcium/calmodulin-dependent protein kinases), CK1 (Casein kinase 1 kinases), CMGC (CDK, MAPK, GSK3, CLK families), STE (homologs of yeast Sterile 7, Sterile 11, Sterile 20 kinases), TK (Tyrosine kinases), TKL (Tyrosine kinase-like kinases), lipid and atypical kinase families.
Selectivity Score or S-score is a quantitative measure of compound selectivity. It was calculated by dividing the number of kinases that a compound binds to by the total number of distinct kinases tested, excluding mutant variants. S=Number of hits/Number of assays. This value can be calculated using % Ctrl as a potency threshold (below) and provides a quantitative method of describing compound selectivity to facilitate comparison of different compounds.

[4] = test system: pooled donor, cryopreserved hepatocytes; assay: Hepatocyte intrinsic clearance assay; assay type: in vitro ADME, Human; conditions: based on hepatocyte CLint values of Table 5
In short: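 Compound (0.05 μM final, 0.05% organic) was incubated with pooled-donor cryopreserved hepatocytes (1×10^6/mL) in supplemented Leibovitz L-15, pH 7.4, at 37° C with shaking for 2 h. Samples were taken from 1 to 120 min, quenched in acetonitrile and analyzed by LC-MS/MS.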

[5] = brain, oral 5 mg/kg, n=3, read-out: Total brain concentration
[6] = plasma, oral 5 mg/kg, n=3, read-out: Total plasma concentration

| Kp at 1 h ([1]; brain, oral 10 mg/kg) | Kp uu at 1 h ([1]; brain, oral 10 mg/kg) | concentration at 1 h ([1]; brain, oral 10 mg/kg, n=3, read-out: Total brain concentration) [ng/g] | concentration at 1 h ([1]; plasma, oral 10 mg/kg, n=3, read-out: Total plasma concentration) [ng/mL] | Selectivity Score S(1) ([3]; hits with % Ctrl <1 / 403 non-mutant kinases) | Selectivity Score S(10) ([3]; hits with % Ctrl <10 / 403 non-mutant kinases) | Selectivity Score S(35) ([3]; hits with % Ctrl <35 / 403 non-mutant kinases) | Number of Hits, S(1) ([3]; kinases with % Ctrl <1, 403 non-mutant kinases, includes LRRK2 WT) | Number of Hits, S(10) ([3]; kinases with % Ctrl <10, 403 non-mutant kinases) | Number of Hits, S(35) ([3]; kinases with % Ctrl <35, 403 non-mutant kinases) | Structure (SMILES) | fubrain (% free) [2] [% free] | fuplasma (% free) [2] [% free] | Kp at 1 h ([1]; brain, oral 5 mg/kg) | Kp uu at 1 h ([1]; brain, oral 5 mg/kg) | concentration at 1 h [1, 5] [ng/g] | concentration at 1 h [1, 6] [ng/mL] | Rate of metabolism classification (hepatocyte CLint) [4] |
| --- | --- | --- | --- | --- | --- | --- | --- | --- | --- | --- | --- | --- | --- | --- | --- | --- | --- |
| 2.6 ± 0.2 | 0.83 ± 0.07 | 620 ± 280 | 245 ± 121 | 0.005 | 0.01 | 0.03 | 2 | 4 | 12 | COc1ncccc1-n1nc2c(c1C)Nc1ncc3c(Cl)nn(c3n1)CCCO2 [Example 1, 8-Chloro-2-(2-methoxypyridin-3-yl)-3-methyl-2,4,12,13-tetrahydro-11H-5,7-(azenometheno)dipyrazolo[3,4-b:5′,1′-g][1]oxa[4,6,8]triazacycloundecine] | 4.7 | 14.7 |  |  |  |  |  |
|  |  |  |  |  |  |  |  |  |  | COc1nccc(C)c1-n1nc2c(c1C)Nc1ncc3c(Cl)nn(c3n1)CCCO2 [Example 7, 8-Chloro-2-(2-methoxy-4-methylpyridin-3-yl)-3-methyl-2,4,12,13-tetrahydro-11H-5,7-(azenometheno)dipyrazolo[3,4-b:5′,1′-g][1]oxa[4,6,8]triazacycloundecine] | 7.5 | 21.0 | 1.9 ± 0.3 | 0.68 ± 0.12 | 10 ± 2 | 6 ± 2 |  |
|  |  |  |  |  |  |  |  |  |  | COc1ncc(C)cc1-n1nc2c(c1C)Nc1ncc3c(Cl)nn(c3n1)CCCO2 [Example 12, 8-Chloro-2-(2-methoxy-5-methylpyridin-3-yl)-3-methyl-2,4,12,13-tetrahydro-11H-5,7-(azenometheno)dipyrazolo[3,4-b:5′,1′-g][1]oxa[4,6,8]triazacycloundecine] | 3.0 | 6.7 | 1.9 ± 0.3 | 0.85 ± 0.15 | 146 ± 56 | 76 ± 23 |  |
|  |  |  |  |  |  |  |  |  |  | COc1nc(C)ccc1-n1nc2c(c1C)Nc1ncc3c(Cl)nn(c3n1)CCCO2 [Example 13, 8-Chloro-2-(2-methoxy-6-methylpyridin-3-yl)-3-methyl-2,4,12,13-tetrahydro-11H-5,7-(azenometheno)dipyrazolo[3,4-b:5′,1′-g][1]oxa[4,6,8]triazacycloundecine] | 1.9 | 7.4 | 2.5 ± 0.1 | 0.74 ± 0.01 | 496 ± 128 | 199 ± 52 | moderate to high rate of metabolism |
|  |  |  |  |  |  |  |  |  |  | Cc1c2c(nn1-c1cccnc1C(C)(F)F)OCCCn1nc(Cl)c3cnc(nc31)N2 [Example 14, 8-Chloro-2-(2-(1,1-difluoroethyl)pyridin-3-yl)-3-methyl-2,4,12,13-tetrahydro-11H-5,7-(azenometheno)dipyrazolo[3,4-b:5′,1′-g][1]oxa[4,6,8]triazacycloundecine] | 5.8 | 14.6 | 1.2 ± 0.1 | 0.49 ± 0.04 | 347 ± 53 | 283 ± 57 |  |
|  |  |  |  |  |  |  |  |  |  | Cc1nc(C)c(-n2nc3c(c2C)Nc2ncc4c(Cl)nn(c4n2)CCCO3)cc1F [Example 15, 8-Chloro-2-(5-fluoro-2,6-dimethylpyridin-3-yl)-3-methyl-2,4,12,13-tetrahydro-11H-5,7-(azenometheno)dipyrazolo[3,4-b:5′,1′-g][1]oxa[4,6,8]triazacycloundecine] | 5.0 | 11.0 | 1.8 ± 0.2 | 0.81 ± 0.07 | 254 ± 32 | 143 ± 8 |  |
|  |  |  |  |  |  |  |  |  |  | COc1nc(C)ncc1-n1nc2c(c1C)Nc1ncc3c(Cl)nn(c3n1)CCCO2 [Example 22, 8-Chloro-2-(4-methoxy-2-methylpyrimidin-5-yl)-3-methyl-2,4,12,13-tetrahydro-11H-5,7-(azenometheno)dipyrazolo[3,4-b:5′,1′-g][1]oxa[4,6,8]triazacycloundecine] | 6.8 | 16.8 | 2.5 ± 0.4 | 1.02 ± 0.17 | 216 ± 42 | 86 ± 8 |  |
